From patent US20260102379A1, “Inhibitor of PFKFB2 Kinase Activity and Cellular Glycolysis” (Oklahoma Medical Research Foundation, priority 2024, published 2026)

Target: T1, PFKFB3 (Homo sapiens, UniProt Q16875)
T1 construct: GST (cleaved yes); host or cells: Rosetta cells (bacteria)
Assay: PFK-2 kinase activity assay (coupled PPi-PFK assay), recombinant PFKFB3
Assay type: biochemical
Settings: recombinant PFKFB3, concentration course
Procedure: Recombinant Protein Expression: PFKFB2, PFKFB1, and PFKFB3 constructs (Origene) were subcloned into GST expression vector. Mutation of PFKFB2 at K174 to G [3], H259 to A [4], and the double mutant were created using Quickchange methodology. All constructs were transformed into Rosetta cells (Milipore), expressed and induced following standard protocol. Bacteria were harvested via centrifugation and pellets resuspended in 10 mL sonication buffer (50 mM TrisHCl pH 7.5, 10% glycerol, 150 mM NaCl, 10 mM Imidazole, 10 uL 1M DTT, and 1 protease inhibitor tablet). Cells were sonicated (power lvl 5, 45 s, 4×, QSonica) at 4° C. and spun 10 krpm for 10 min at 4° C. to collect protein lysate. […] Protein concentration was determined by Nanodrop (Thermo).
The resultant F-2,6-BP levels were determined by pyrophosphate-fructose-6-phosphate phosphotransferase (PPi-PFK) activity. After the preincubation phase, the F-2,6-BP/PFK2 mixture was diluted 10× by 50 mM pH 8.0 Tris assay buffer, supplemented with 5 mM Mg^2+, 0.5 mM PPi and 1 mM F-6-P. The PPi-PFK activity was measured as the rate of NADH oxidation (ε340=6200 M^−1 cm^−1) following the addition of 150 μM NADH to a mixture of excess PPi-PFK, 0.1 μg/mL triosephosphate isomerase, 10 μg/mL glycerol-3-phosphate dehydrogenase, and 0.01 U/mL aldolase. […]

T1 sequence (Q16875 whole entry, species assumed): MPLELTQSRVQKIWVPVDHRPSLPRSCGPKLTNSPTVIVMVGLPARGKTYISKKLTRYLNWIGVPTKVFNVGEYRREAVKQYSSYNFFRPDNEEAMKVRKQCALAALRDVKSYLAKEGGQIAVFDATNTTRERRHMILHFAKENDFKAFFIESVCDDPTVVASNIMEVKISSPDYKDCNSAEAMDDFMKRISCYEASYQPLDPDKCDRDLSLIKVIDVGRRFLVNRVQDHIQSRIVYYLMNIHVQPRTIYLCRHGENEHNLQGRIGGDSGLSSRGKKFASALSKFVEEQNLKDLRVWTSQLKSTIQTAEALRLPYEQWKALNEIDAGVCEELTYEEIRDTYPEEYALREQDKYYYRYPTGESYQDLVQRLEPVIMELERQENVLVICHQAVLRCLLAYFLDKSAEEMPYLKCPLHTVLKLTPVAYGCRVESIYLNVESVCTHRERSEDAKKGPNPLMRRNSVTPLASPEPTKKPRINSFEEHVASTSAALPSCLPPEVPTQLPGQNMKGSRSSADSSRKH

Question: Which IC50 does the source give for COc1ccccc1Nc1nnc(S)s1 [B2, 5-[(2-methoxyphenyl)amino]-1,3,4-thiadiazole-2-thiol] here?
Answer: Its IC50 is 11.9 µM.

Question: With O=C(/C=C/c1ccc2ccc(C(F)(F)F)cc2n1)c1ccncc1 [PFK158] as the compound, how does the IC50 read?
Answer: Its IC50 is 8.94 µM.
